Among the data in patent US20170152239A1, “BENZAMIDE AND HETEROBENZAMIDE COMPOUNDS” (PFIZER INC., priority 2012, published 2017) are IC50 values, retold here.

For orientation: IC50 means the concentration that inhibits the measured activity by half.

Chain of WT EZH2 (EZH2 4 protein complex: EZH2, EED, SUZ12, RbAp48) (Q15910 whole entry): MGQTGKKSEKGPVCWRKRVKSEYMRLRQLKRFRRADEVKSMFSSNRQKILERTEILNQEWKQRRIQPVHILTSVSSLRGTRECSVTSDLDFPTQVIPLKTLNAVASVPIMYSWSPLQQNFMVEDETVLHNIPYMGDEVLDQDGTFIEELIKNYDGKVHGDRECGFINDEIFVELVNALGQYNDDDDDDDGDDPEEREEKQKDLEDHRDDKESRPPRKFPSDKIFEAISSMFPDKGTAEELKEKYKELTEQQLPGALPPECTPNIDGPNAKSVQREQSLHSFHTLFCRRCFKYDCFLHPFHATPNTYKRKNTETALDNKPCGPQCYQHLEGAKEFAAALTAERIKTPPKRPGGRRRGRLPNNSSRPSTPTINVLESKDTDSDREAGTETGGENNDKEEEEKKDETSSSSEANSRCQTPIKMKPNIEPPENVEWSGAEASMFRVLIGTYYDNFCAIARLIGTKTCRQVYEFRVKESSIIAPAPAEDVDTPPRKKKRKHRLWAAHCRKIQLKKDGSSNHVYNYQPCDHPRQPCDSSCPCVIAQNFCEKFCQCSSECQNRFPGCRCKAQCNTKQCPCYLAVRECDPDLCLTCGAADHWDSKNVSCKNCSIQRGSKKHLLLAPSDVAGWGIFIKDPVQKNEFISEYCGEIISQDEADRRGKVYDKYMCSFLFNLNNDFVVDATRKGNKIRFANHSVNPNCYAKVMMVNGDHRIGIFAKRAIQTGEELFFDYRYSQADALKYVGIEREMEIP
Chain of WT EZH2 (EZH2 4 protein complex: EZH2, EED, SUZ12, RbAp48) (O75530 whole entry partner): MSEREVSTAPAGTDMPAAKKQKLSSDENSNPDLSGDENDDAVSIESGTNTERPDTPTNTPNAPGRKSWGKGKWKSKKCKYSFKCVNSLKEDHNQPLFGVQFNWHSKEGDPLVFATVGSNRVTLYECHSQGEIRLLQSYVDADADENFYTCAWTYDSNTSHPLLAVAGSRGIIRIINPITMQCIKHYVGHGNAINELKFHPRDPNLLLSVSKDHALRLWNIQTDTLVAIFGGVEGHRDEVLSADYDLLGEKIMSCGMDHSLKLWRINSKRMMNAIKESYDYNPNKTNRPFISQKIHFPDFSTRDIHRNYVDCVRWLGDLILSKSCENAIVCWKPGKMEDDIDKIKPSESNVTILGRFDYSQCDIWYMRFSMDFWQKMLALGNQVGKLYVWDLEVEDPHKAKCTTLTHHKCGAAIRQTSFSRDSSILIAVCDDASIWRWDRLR
Chain of WT EZH2 (EZH2 4 protein complex: EZH2, EED, SUZ12, RbAp48) (Q15022 whole entry partner): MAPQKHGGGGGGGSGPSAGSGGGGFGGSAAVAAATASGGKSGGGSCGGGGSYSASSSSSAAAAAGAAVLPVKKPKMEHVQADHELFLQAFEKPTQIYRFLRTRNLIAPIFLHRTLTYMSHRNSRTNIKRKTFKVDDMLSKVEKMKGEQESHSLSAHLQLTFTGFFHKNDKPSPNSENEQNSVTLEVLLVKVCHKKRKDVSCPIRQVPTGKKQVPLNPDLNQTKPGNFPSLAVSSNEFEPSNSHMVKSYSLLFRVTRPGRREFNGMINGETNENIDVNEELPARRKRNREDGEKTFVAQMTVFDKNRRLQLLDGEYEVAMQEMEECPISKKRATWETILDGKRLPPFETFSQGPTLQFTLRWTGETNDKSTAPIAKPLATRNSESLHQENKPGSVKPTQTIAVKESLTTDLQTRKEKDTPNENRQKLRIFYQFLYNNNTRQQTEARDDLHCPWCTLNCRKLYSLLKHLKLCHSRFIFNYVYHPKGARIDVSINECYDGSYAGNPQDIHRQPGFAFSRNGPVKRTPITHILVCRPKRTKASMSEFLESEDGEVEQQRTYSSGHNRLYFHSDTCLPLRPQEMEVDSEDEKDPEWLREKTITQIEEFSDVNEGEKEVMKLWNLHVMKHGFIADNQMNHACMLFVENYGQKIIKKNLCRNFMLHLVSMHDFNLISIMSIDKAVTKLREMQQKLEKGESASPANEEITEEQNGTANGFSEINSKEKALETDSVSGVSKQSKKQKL
Chain of WT EZH2 (EZH2 4 protein complex: EZH2, EED, SUZ12, RbAp48) (Q09028 whole entry partner): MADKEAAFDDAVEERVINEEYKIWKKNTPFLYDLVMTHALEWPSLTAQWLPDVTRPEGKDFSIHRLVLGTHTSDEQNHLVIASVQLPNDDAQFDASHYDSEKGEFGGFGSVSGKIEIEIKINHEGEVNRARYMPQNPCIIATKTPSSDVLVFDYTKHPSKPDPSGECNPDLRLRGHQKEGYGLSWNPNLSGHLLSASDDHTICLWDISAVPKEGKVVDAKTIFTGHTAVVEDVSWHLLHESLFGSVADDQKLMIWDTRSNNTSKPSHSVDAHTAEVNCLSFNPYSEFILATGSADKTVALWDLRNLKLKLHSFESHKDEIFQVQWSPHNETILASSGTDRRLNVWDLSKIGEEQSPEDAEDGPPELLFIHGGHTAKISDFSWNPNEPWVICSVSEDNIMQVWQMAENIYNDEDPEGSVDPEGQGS

This experiment deals with WT EZH2 (EZH2 4 protein complex: EZH2, EED, SUZ12, RbAp48) (Homo sapiens, UniProt O75530+Q09028+Q15022+Q15910). Briefly: WT EZH2 nucleosome assay. The settings on record: nucleosome assay, 5 nM EZH2 4-protein complex, 1.5 μM SAM; read-out: WT EZH2 IC50. The class given is biochemical. An outline of the steps:
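Radiometric methyltransferase assay: 5 nM EZH2 four-protein complex, 1.5 μM 3H-SAM, 25 μg/mL HeLa oligonucleosomes, 50 nM recombinant H1 in 100 mM Tris pH 8.5, 4 mM DTT, 0.01% Tween-20. 60 min reaction, TCA quench, filter capture, scintillation counting; IC50 from 11-point 4-parameter fit; % effect at 20 μM.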
`Cc1cc(C)c(CNC(=O)c2nc(OCCN3CC[C@H](F)C3)nc(-c3ccnn3C)c2C)c(=O)[nH]1` [Example 101, N-[(4,6-dimethyl-2-oxo-1,2-dihydropyridin-3-yl)methyl]-2-{2-[(3S)-3-fluoropyrrolidin-1-yl]ethoxy}-5-methyl-6-(1-methyl-1H-pyrazol-5-yl)pyrimidine-4-carboxamide]: the IC50 was found to be 18.4 µM.

Regarding `CCn1ncc(C)c1-c1cccc(C(=O)NCc2c(C)c(Cl)c(C)[nH]c2=O)c1C` [Example 148, N-[(5-chloro-4,6-dimethyl-2-oxo-1,2-dihydropyridin-3-yl)methyl]-3-(1-ethyl-4-methyl-1H-pyrazol-5-yl)-2-methyl-benzamide], the IC50 was > 200 µM. On to `Cc1cc(C)c(CNC(=O)c2ncnc(N3CCC[C@@H]3C)c2C)c(=O)[nH]1` [Example 71, N-[(4,6-dimethyl-2-oxo-1,2-dihydropyridin-3-yl)methyl]-5-methyl-6-[(2S)-2-methylpyrroli-din-1-yl]pyrimidine-4-carboxamide], for which the half-inhibitory concentration (IC50) was 6.33 µM. `CSc1nc(C(=O)NCc2c(C)cc(C)[nH]c2=O)c(C)c(-c2ccnn2C)n1` [Example 72, N-[(4,6-dimethyl-2-oxo-1,2-dihydropyridin-3-yl)methyl]-5-methyl-6-(1-methyl-1H-pyrazol-5-yl)-2-(methylthio) pyrimidine-4-carboxamide]: the IC50 stood at 6.37 µM. Consider `Cc1cc(C)c(CNC(=O)c2ccnc(OC(C)C)c2C)c(=O)[nH]1` [Example 87, N-[(4,6-dimethyl-2-oxo-1,2-dihydropyridin-3-yl)methyl]-2-isopropxy-3-methylisonico-tinamide], for which the IC50 was found to be 9.76 µM.

Consider `Cc1cc(C)c(CNC(=O)c2ncnc(N3CCC[C@@H]3C#N)c2C)c(=O)[nH]1` [Example 116, 6-[(2R)-2-cyanopyrrolidin-1-yl]-N-[(4,6-dimethyl-2-oxo-1,2-dihydropyridin-3-yl)methyl]-5-methyl-pyrimidine-4-carboxamide], for which the IC50 worked out at 29.2 µM. The figure for `Cc1cc(C)c(CNC(=O)c2ncnc(N3CCCC3)c2C)c(=O)[nH]1` [Example 125, N-[(4,6-dimethyl-2-oxo-1,2-dihydropyridin-3-yl)methyl]-5-methyl-6-pyrrolidin-1-ylpyrimidine-4-carboxamide] is 50.7 µM; for `Cc1cc(C)c(CNC(=O)c2cc(Cl)cc(-n3ccnc3C)c2C)c(=O)[nH]1` [Example 29, 5-chloro-N-[(4,6-dimethyl-2-oxo-1,2-dihydropyridin-3-yl)methyl]-2-methyl-3-(2-methyl-1H-imidazol-1-yl)benzamide] it is 0.71 µM; for `Cc1cc(C(F)(F)F)c(CNC(=O)c2cccc(-c3ccnn3C)c2Cl)c(=O)[nH]1` [Example 121, 2-chloro-N-{[6-methyl-2-oxo-4-(trifluoromethyl)-1,2-dihydropyridin-3-yl]methyl}-3-(1-methyl-1H-pyrazol-5-yl)benzamide] it is 42.1 µM. The figure for `Cc1cc(C)c(CNC(=O)c2cccc(OC(C)C)c2F)c(=O)[nH]1` [Example 130, N-[(4,6-dimethyl-2-oxo-1,2-dihydropyridin-3-yl)methyl]-2-fluoro-3-isopropoxy-benzamide] is 67.9 µM.

For `Cc1cc(C)c(CNC(=O)c2ccnc(-c3ccnn3C)c2Cl)c(=O)[nH]1` [Example 91, 3-chloro-N-[(4,6-dimethyl-2-oxo-1,2-dihydropyridin-3-yl)methyl]-2-(1-methyl-1H-pyrazol-5-yl)isonicotin-amide], the 50% inhibitory concentration (IC50) is 12.1 µM. With `Cc1cc(C)c(CNC(=O)c2nc(OCCO)nc(-c3ccnn3C)c2C)c(=O)[nH]1` [Example 90, N-[(4,6-dimethyl-2-oxo-1,2-dihydropyridin-3-yl)methyl]-2-(2-hydroxyethoxy)-5-methyl-6-(1-methyl-1H-pyrazol-5-yl)pyrimidine-4-carboxamide], the half-maximal inhibitory concentration (IC50) amounted to 12 µM. On to `Cc1cc(C)c(CNC(=O)c2cc(Cl)cc(-c3c(C)cnn3C)c2C)c(=O)[nH]1` [Example 7, 5-chloro-N-[(4,6-dimethyl-2-oxo-1,2-dihydropyridin-3-yl)methyl]-3-(1,4-dimethyl-1H-pyrazol-5-yl)-2-methylbenzamide], for which the concentration for half-maximal inhibition (IC50) worked out at 0.22 µM. Consider `Cc1cc(C)c(CNC(=O)c2cccc(-c3c(C)n[nH]c3C)c2C)c(=O)[nH]1` [Example 3, N-[(4,6-dimethyl-2-oxo-1,2-dihydropyridin-3-yl)methyl]-3-(3,5-dimethyl-1H-pyrazol-4-yl)-2-methylbenzamide], for which the IC50 was determined as 0.92 µM. Regarding `COC[C@H]1CCCN1c1ncnc(C(=O)NCc2c(C)cc(C)[nH]c2=O)c1C` [Example 131, N-[(4,6-dimethyl-2-oxo-1,2-dihydropyridin-3-yl)methyl]-6-[(2R)-2-(methoxymeth-yl)pyrrolidin-1-yl]-5-methylpyrimidine-4-carboxamide], the IC50 came to 77.8 µM. As for `Cc1cc(C)c(CNC(=O)c2nc(N3CCOCC3)nc(N3CCC[C@@H]3C)c2C)c(=O)[nH]1` [Example 81, N-[(4,6-dimethyl-2-oxo-1,2-dihydropyridin-3-yl)methyl]-5-methyl-6-[(2S)-2-methylpyrroli-din-1-yl]-2-morpholin-4-ylpyrimidine-4-carboxamide], the half-inhibitory concentration (IC50) amounted to 7.74 µM. In the case of `Cc1cc(C)c(CNC(=O)c2cc(-c3cnc(N4C5CCC4COC5)nc3)cc(-c3c(C)cnn3C)c2C)c(=O)[nH]1` [Example 23, N-[(4,6-dimethyl-2-oxo-1,2-dihydropyridin-3-yl)methyl]-3-(1,4-dimethyl-1H-pyrazol-5-yl)-2-methyl-5-{2-[3-oxa-8-azabicyclo[3.2.1]oct-8-yl]pyrimidin-5-yl}benzamide], the 50% inhibitory concentration (IC50) amounted to 0.015 µM. On to `CCc1nncn1-c1cc(Cl)cc(C(=O)NCc2c(C)cc(C)[nH]c2=O)c1C` [Example 61, 5-chloro-N-[(4,6-dimethyl-2-oxo-1,2-dihydropyridin-3-yl)methyl]-3-(3-ethyl-4H-1,2,4-triazol-4-yl)-2-methylbenz-amide], for which the IC50 worked out at 4.21 µM.

As for `Cc1cc(C)c(CNC(=O)c2ncnc(N3CCCC3(C)C)c2C)c(=O)[nH]1` [Example 59, N-[(4,6-dimethyl-2-oxo-1,2-dihydropyridin-3-yl)methyl]-6-(2,2-dimethylpyrroli-din-1-yl)-5-methylpyrimidine-4-carboxamide], the IC50 came out at 3.91 µM. The figure for `Cc1noc([C@H]2CCCN2c2ncnc(C(=O)NCc3c(C)cc(C)[nH]c3=O)c2C)n1` [Example 146, N-[(4,6-dimethyl-2-oxo-1,2-dihydropyridin-3-yl)methyl]-5-methyl-6-[(2R)-2-(3-methyl-1,2,4-oxadiazol-5-yl)pyrrolidin-1-yl]pyrimidine-4-carboxamide] is > 200 µM; for `Cc1cc(C)c(CNC(=O)c2ccnc(N3[C@H](C)CC[C@@H]3C)c2Cl)c(=O)[nH]1` [Example 97, 3-chloro-N-[(4,6-dimethyl-2-oxo-1,2-dihydropyridin-3-yl)methyl]-2-[(2R,5S)-2,5-dimethylpyrroli-din-1-yl]iso-nicotinamide] it is 16.9 µM; for `Cc1cc(C)c(CNC(=O)c2cccc(-c3c(C)nn(C)c3C)c2C)c(=O)[nH]1` [Example 70, N-[(4,6-dimethyl-2-oxo-1,2-dihydropyridin-3-yl)methyl]-2-methyl-3-(1,3,5-trimethyl-1H-pyrazol-4-yl)benzamide] it is 5.21 µM. Take `Cc1cc(C)c(CNC(=O)c2cccc(-c3ccnn3C)c2Cl)c(=O)[nH]1` [Example 9, 2-chloro-N-[(4,6-dimethyl-2-oxo-1,2-dihydropyridin-3-yl)methyl]-3-(1-methyl-1H-pyrazol-5-yl)benzamide]: the IC50 came to 0.7 µM. For `Cc1cc(C)c(CNC(=O)c2cc(Cl)cc(-n3nccc3C)c2C)c(=O)[nH]1` [Example 63, 5-chloro-N-[(4,6-dimethyl-2-oxo-1,2-dihydropyridin-3-yl)methyl]-2-methyl-3-(5-methyl-1H-pyrazol-1-yl)benzamide], the half-maximal inhibitory concentration (IC50) turned out to be 4.38 µM. Turning to `Cc1cc(C)c(CNC(=O)c2ncnc(N3CC[C@H]4C[C@H]43)c2C)c(=O)[nH]1` [Example 136, 6-[(1R,5S)-2-azabicyclo[3.1.0]hex-2-yl]-N-[(4,6-dimethyl-2-oxo-1,2-dihydropyridin-3-yl)methyl]-5-methyl-pyrimidine-4-carboxamide], the half-inhibitory concentration (IC50) was 161 µM. Consider `Cc1cc(C)c(CNC(=O)c2nc(-c3ccc(N)nc3)nc(N3CCC[C@@H]3C)c2C)c(=O)[nH]1` [Example 45, 2-(6-aminopyridin-3-yl)-N-[(4,6-dimethyl-2-oxo-1,2-dihydropyridin-3-yl)methyl]-5-methyl-6-[(2S)-2-methylpyrrolidin-1-yl]pyrimidine-4-carboxamide], for which the IC50 is 1.53 µM. As for `Cc1cc(C)c(CNC(=O)c2ncnc(N3CCOCC3)c2C)c(=O)[nH]1` [Example 123, N-[(4,6-dimethyl-2-oxo-1,2-dihydropyridin-3-yl)methyl]-5-methyl-6-morpholin-4-ylpyrimidine-4-carboxamide], the half-inhibitory concentration (IC50) was determined as 44.4 µM. Consider `CCOc1cccc(C(=O)NCc2c(C)cc(C)[nH]c2=O)c1F` [Example 134, N-[(4,6-dimethyl-2-oxo-1,2-dihydropyridin-3-yl)methyl]-3-ethoxy-2-fluoro-benzamide], for which the IC50 worked out at 127 µM. On to `Cc1cc(C)c(CNC(=O)c2ncnc(N3CCOC[C@@H]3C)c2C)c(=O)[nH]1` [Example 75, N-[(4,6-dimethyl-2-oxo-1,2-dihydropyridin-3-yl)methyl]-5-methyl-6-[(3S)-3-methylmorph-olin-4-yl]pyrimidine-4-carboxamide], for which the concentration for half-maximal inhibition (IC50) is 6.78 µM. Take `Cc1cc(C)c(CNC(=O)c2nc(C3CC3)nc(-c3ccnn3C)c2C)c(=O)[nH]1` [Example 94, 2-cyclopropyl-N-[(4,6-dimethyl-2-oxo-1,2-dihydropyridin-3-yl)methyl]-5-methyl-6-(1-methyl-1H-pyrazol-5-yl)pyrimidine-4-carboxamide]: the IC50 was found to be 16 µM.
